The record followed here is patent US5798387A, “Amino acid derivatives” (Zaidan Hojin Biseibutsu Kagaku Kenkyu Kai, priority 1992, dated 1998).

Assay [1] concerns T cells. In words: T cell proliferation (Test 1), thymidine uptake of Concanavalin A-treated T cells. Conditions: Rattus norvegicus, 72 h, 3 days, untreated cells = 100, read-out: Rate of stimulating proliferation of T cells; for activity at 0.1 µg/mL: concentration of compound 0.1 μg/ml; for activity at 1 µg/mL: concentration of compound 1 μg/ml; for activity at 10 µg/mL: concentration of compound 10 μg/ml. Format: cell-based, rat (female Fisher 344). An excerpt: Effects of the novel amino acid derivatives of the general formula (I) on the proliferation of T cells were investigated by the following procedure.
The spleens, which had been excised in sterility from female Fisher 344 rats (12-16 weeks old, purchased from CHARLES RIVER JAPAN, INC), were squeezed in RPMI 1640 medium (a product of NISSUI PHARMACEUTICAL CO., LTD.) supplemented with 10% of fetal bovine serum, followed by passage of the resulting cell suspension through a column containing nylon wool fibres, whereby a cell suspension containing an abundant amount of T cells was obtained. This cell suspension was diluted to a level of 1×10^6 cells/ml with addition of a medium of the same composition as above. The cell-containing medium so obtained was then added with 5 μg/ml of Concanavalin A (product of Pharmacia AB), followed by incubation at 37° C. for 4 hours. Four hours later, α-methylmannoside was added to the incubated medium to give a concentration of 20 mg/ml of α-methylmannoside. After stirring the medium, cells were separated and collected therefrom by centrifugation. The collected cells were suspended at a level of 3×10^6 cells/ml in a medium of the same composition as above, followed by placing the resulting cell suspension in 100 μl portions in a 96-well microplate.
Novel amino acid derivatives at various concentrations, which are shown in Table 4, were incorporated in an amount of 100 μl as the test compounds to the respective cell suspensions in the plate, followed by incubation at 37° C. for 3 days in an incubator under air atmosphere containing 5% of carbon dioxide. Meanwhile, eighteen hours before the completion of the incubation, a solution of 10μ Ci/ml of radioactively labeled thymidine (Thymidine "6-^3 H", a product of NEN Company) was added in an amount of 10 μl to the cell suspensions under incubation. The cells after the incubation were collected on a filter paper by means of a cell harvester, washed with water and radioactivity of the cells so treated was determined by a liquid scintillation counter. The determined values of the radioactivity of the cells as treated with the test compounds were evaluated on the assumption that the determined value of the radioactivity of the cells untreated, namely tested without addition of the test compound during the incubation of cells was amounting to 100. The so evaluated values are recorded and expressed as rates (%) for stimulating the T cell proliferation which show such extent that the proliferation of T cells is enhanced by the new amino acid derivative of this invention.

Assay [2] deals with bone-marrow cells (hematopoietic stem cells; megakaryocytes). In words: Formation of colonies of megakaryocytes from bone-marrow cells (Test 3). The class given is cell-based, mouse (male BALB/c). Conditions: Mus musculus, Bone marrow cell, 168 h, 7 days, no addition = 100, read-out: Number of colonies of megakaryocytes; for activity at 5 µg/mL: concentration of test compound 5 μg/ml; for activity at 50 µg/mL: concentration of test compound 50 μg/ml. The protocol:
The activity of some amino acid derivatives of the general formula (I) according to this invention which induces proliferation of hematopoietic stem cells was tested in the following manner. Thus, bone-marrow cells had been prepared from the femurs of male BALB/c mouse (6-7 weeks old), and then a suspension of the bone-marrow cells was overlayed on "Lympholite M" (product of Cefalane Company), followed by centrifugation under 1500 g for 20 minutes. A lymphocyte fraction was collected, washed three times with "alpha MEM medium" (product of Gibco Company), and then diluted and suspended in the same medium as above to give a lymphocyte concentration of 7×10^6 cells/ml.
[…] of the resulting cell suspension, 50 μl of a solution of a test compound in physiological saline, 50 μl of a culture supernatant of WEHI-3, 100 μl of phosphate-buffered physiological saline, 50 μl of a pre-deionized 10% bovine serum albumin solution, 50 μl of an L-asparagin solution (200 μg/ml), 50 μl of a calcium chloride solution (260 μg/ml) and 50 μl of bovine plasma containing sodium citrate were combined together. The liquid mixture so obtained was poured in portions of 50 μl/well on a slide glass ("Glass Ware", product of Flaw Laboratory Company). After coagulation of the mixture, the slide glass bearing the coagulated masses was immersed in 10% FBS-added alpha MEM medium, followed by incubation at 37° C. under 5% CO2 for 7 days.
After completion of the incubation, the cells on the slide glass were immobilized with a 25% glutaraldehyde solution. In accordance with the methods proposed by Nagasawa et al. ["Zoketsu Kan Saibo (Hematopoietic Stem Cells)" compiled by takahisa Shimamaro, page 128 (The Nishimura Shoten Co., Ltd.)], the immobilized cells were stained for acetylcholinesterase activity which is specific for mouse megakaryocytes, and also the cells were stained with Mayer hematoxylin. Each cell culture so stained was dried and then sealed with a sealing agent. Under a microscope of ×100 magnification, the number of megakaryocytic colonies (i.e., the number of cells stained in an orange color) per well was counted.

Assay [3] relates to Ehrlich ascites carcinoma. In words: Antitumor activity (Test 2), Ehrlich ascites carcinoma transplanted subcutaneously. The class given is in vivo, mouse (ICR). As to conditions: tumor weight on day 15 vs control. The protocol: The antitumor activity of some amino acid derivatives of the general formula (I) according to this invention was tested in the following manner. A suspension of Ehrlich ascites carcinoma cells was subcutaneously injected to one of the inguinal parts of each ICR mouse to transplant 4×10^6 cells/mouse. From the seventh day after the transplantation, a test compound was intraperitoneally injected daily for 7 days at a dose of 50, 5 or 0.5 mg/kg (4 mice per treated group of mice, but 8 mice per untreated control group of mice). On the fifteenth day after the transplantation, a solid cancer was cut out and weighed. A reduction in the weight of solid cancers of the mice in each treated group of mice which was evaluated in comparison with the control group is expressed as rate of inhibiting the tumor growth (%) in Table 5 below.

Where a SMILES comes first, the peptide text is derived from it. [ ]: non-standard residue; d: D form. αMeS = C[C](N)(CO)C(=O)O; hSer = N[CH](CCO)C(=O)O

As for `CCC(C)CC(=O)NC(C)(CO)C(=O)OCc1ccccc1` (stereo not shown) [Compound 2], in assay [1], the activity at 0.1 µg/mL worked out at 208%, the activity at 1 µg/mL was 190% and the activity at 10 µg/mL amounted to 275%. Also, in assay [2], the activity at 5 µg/mL was found to be 122%.
In the same order, the values of `CC(O)C(C)C(O)C(=O)NC(CSCc1ccccc1)C(=O)OCc1ccccc1` (stereo not shown) [Compound 20] are 153%, 227%, 261% and 129%.
In the same order, the values of `COC(=O)C(C)(CO)NC(=O)C(O)C(C)(C)CO` (stereo not shown) [Compound 14] are 356%, 335%, 443% and 167%.
In the same order, the values of `CC(C)C(O)C(=O)NC(C)(CO)C(=O)OCc1ccccc1` (stereo not shown) [Compound 8] are 251%, 226%, 372% and 111%.
As to `CC(O)C(C)C(O)C(=O)NC(CO)C(=O)O` (stereo not shown) [Compound 11], in assay [1], the activity at 0.1 µg/mL was found to be 394%, the activity at 1 µg/mL is 392% and the activity at 10 µg/mL is 100%. The activity at 5 µg/mL in assay [2] was 150%.
In the case of `CC(CO)(NC(=O)C(N)CCO)C(=O)O` (stereo not shown) [Compound 27] (H-[hSer]-[αMeS]-OH; configuration not given here), the activity at 50 µg/mL in assay [2] amounted to 143%.
For the molecule `CCCCOC(=O)C(C)(CO)NC(=O)CCC(C)O` (stereo not shown) [Compound 4], in assay [1], the activity at 0.1 µg/mL is 133%, the activity at 1 µg/mL came to 135% and the activity at 10 µg/mL came to 100%.
Regarding `CCC(C)CC(=O)NC(C)(CO)C(=O)O` (stereo not shown) [Compound 1], in assay [1], the activity at 0.1 µg/mL came to 292%, the activity at 1 µg/mL came out at 297% and the activity at 10 µg/mL was 332%. In assay [2], the activity at 5 µg/mL worked out at 147%.
For the molecule `CC(O)CC(=O)NC(C)(CO)C(=O)O` (stereo not shown) [Compound 5], in assay [1], the activity at 0.1 µg/mL is 313%, the activity at 1 µg/mL is 370% and the activity at 10 µg/mL is 439%. In addition, the activity at 50 µg/mL in assay [2] is 178%.
With `CSCC(NC(=O)C(O)C(C)C(C)O)C(=O)OCc1ccccc1` (stereo not shown) [Compound 19], in assay [3] (5 mg/kg i.p. daily for 7 days), the “Tumor growth inhibiting rate” value was 12%. Also, in assay [1], the activity at 0.1 µg/mL worked out at 289%, the activity at 1 µg/mL worked out at 310% and the activity at 10 µg/mL was 251%. Besides, in assay [2], the activity at 50 µg/mL was 156%.
Regarding `CC(O)C(C)C(O)C(=O)NC(C)(C)C(=O)O` (stereo not shown) [Compound 26], in assay [2], the activity at 5 µg/mL turned out to be 136%.
As for `CC(C)CC(NC(=O)C(O)C(C)C(C)O)C(=O)OCc1ccccc1` (stereo not shown) [Compound 10], the “Tumor growth inhibiting rate” value in assay [3] (5 mg/kg i.p. daily for 7 days) is 31%. Besides, in assay [3] (50 mg/kg i.p. daily for 7 days), the “Tumor growth inhibiting rate” value is 58%. For the same molecule, in assay [1], the activity at 0.1 µg/mL came out at 231%, the activity at 1 µg/mL was found to be 201% and the activity at 10 µg/mL stood at 251%. The activity at 5 µg/mL in assay [2] stood at 138%.
Regarding `CC(C)C(O)C(C)C(O)C(=O)NC(C)(CO)C(=O)OCc1ccccc1` (stereo not shown) [Compound 17], in assay [1], the activity at 0.1 µg/mL amounted to 201%, the activity at 1 µg/mL worked out at 273% and the activity at 10 µg/mL turned out to be 245%. In addition, in assay [2], the activity at 5 µg/mL amounted to 107%.
For `CC(NC(=O)C(O)C(C)C(C)O)C(=O)OCc1ccccc1` (stereo not shown) [Compound 22], in assay [2], the activity at 5 µg/mL is 108%.
Take `CC(C)C(O)C(C)C(O)C(=O)NC(C)(CO)C(=O)O` (stereo not shown) [Compound 16]: in assay [1], the activity at 0.1 µg/mL was determined as 200%, the activity at 1 µg/mL is 239% and the activity at 10 µg/mL is 201%. Also, the activity at 50 µg/mL in assay [2] stood at 143%.
In the case of `CC(O)CCC(=O)NC(C)(CO)C(=O)O` (stereo not shown) [Compound 3], in assay [1], the activity at 0.1 µg/mL amounted to 123%, the activity at 1 µg/mL amounted to 100% and the activity at 10 µg/mL came to 101%.
In the case of `CC(CC(=O)OCc1ccccc1)NC(=O)C(O)C(C)C(C)O` (stereo not shown) [Compound 28], the activity at 5 µg/mL in assay [2] was found to be 121%.
As for `COC(=O)C(CSC)NC(=O)C(O)C(C)C(C)O` (stereo not shown) [Compound 18], in assay [1], the activity at 0.1 µg/mL was found to be 268%, the activity at 1 µg/mL turned out to be 355% and the activity at 10 µg/mL stood at 427%. In addition, the activity at 5 µg/mL in assay [2] worked out at 146%.
Take `CC(CC(=O)O)NC(=O)C(O)C(C)C(C)O` (stereo not shown) [Compound 29]: the activity at 50 µg/mL in assay [2] worked out at 121%.
For the molecule `CC(C)CC(NC(=O)C(O)C(C)C(C)O)C(=O)O` (stereo not shown) [Compound 9], in assay [1], the activity at 0.1 µg/mL came out at 175%, the activity at 1 µg/mL turned out to be 157% and the activity at 10 µg/mL amounted to 196%. In addition, in assay [2], the activity at 50 µg/mL was determined as 145%.
In the same order, the values of `CC(CO)(NC(=O)C(O)C(C)(C)CO)C(=O)OCc1ccccc1` (stereo not shown) [Compound 15] are 350%, 349%, 442% and 135%.
Turning to `CC(O)C(NC(=O)C(O)C(C)C(C)O)C(=O)O` (stereo not shown) [Compound 23], the activity at 5 µg/mL in assay [2] was 144%.
Same read-out and setting: the same measure for `CC(NC(=O)C(O)C(C)C(C)O)C(=O)O` (stereo not shown) [Compound 24]: 136%.
Turning to `CC(C)C(O)C(=O)NC(C)(CO)C(=O)O` (stereo not shown) [Compound 7], in assay [1], the activity at 0.1 µg/mL came out at 240%, the activity at 1 µg/mL turned out to be 222% and the activity at 10 µg/mL amounted to 323%. For the same molecule, in assay [2], the activity at 50 µg/mL came out at 166%.
As to `CC(O)CC(=O)NC(C)(COCc1ccccc1)C(=O)OCc1ccccc1` (stereo not shown) [Compound 6], in assay [1], the activity at 0.1 µg/mL came out at 142%, the activity at 1 µg/mL is 171% and the activity at 10 µg/mL worked out at 169%. In addition, the activity at 5 µg/mL in assay [2] was determined as 126%.
In the same order, the values of `CC(CO)(NC(=O)C(O)C(C)(C)CO)C(=O)O` (stereo not shown) [Compound 13] are 405%, 352%, 465% and 177%.
For `CC(O)C(C)C(O)C(=O)NC(C)(C)C(=O)OCc1ccccc1` (stereo not shown) [Compound 25], in assay [2], the activity at 50 µg/mL came out at 156%.
